Measurements published in the supplement of paper PMC10307832.

What was measured:
Experiment in all cases: relative viability (nuclei count vs DMSO), 5 days (fraction); higher = more cells survive
[1] = compound: COc1cc(Nc2c(C#N)cnc3cc(OCCCN4CCN(C)CC4)c(OC)cc23)c(Cl)cc1Cl [Bosutinib]
Method in brief: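 Five library-drug doses spaced by √10 were pinned onto vehicle-anchored 1536-well plates of lung cancer cell lines that had been kept overnight at 37 °C. Cells went 5 days without medium change, then were fixed, permeabilised and Hoechst-stained together, imaged at 4× and counted by MetaXpress. Viability is the ratio of treated-well to vehicle-well nuclei, taken as a median over plates. Plates required control CV below 25% and at least one doubling.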

[2] = compound: COc1cc(Nc2c(C#N)cnc3cc(OCCCN4CCN(C)CC4)c(OC)cc23)c(Cl)cc1Cl [Bosutinib] + N=C(N)NC(=N)NCCc1ccccc1 [Phenformin] (partner 250 µM)
Method in brief: (§1)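 Each reported value is a median over duplicate plates. It expresses relative viability: treated-well nuclei count divided by vehicle-well nuclei count. Lung cancer cell lines in 1536-well plates were dosed by pin tool a day after seeding, alone with one drug or with a fixed anchor-drug dose plus five library-drug doses (not always all listed) in √10 steps, and nuclei were counted after 5 days.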

[3] = compound: COc1cc(Nc2c(C#N)cnc3cc(OCCCN4CCN(C)CC4)c(OC)cc23)c(Cl)cc1Cl [Bosutinib] + COc1cc2c(Oc3ccc(NC(=O)C4(C(=O)Nc5ccc(F)cc5)CC4)cc3F)ccnc2cc1OCCCN1CCOCC1 [Foretinib] (partner 0.25 µM)
Method in brief: as §1

[4] = compound: COc1cc(Nc2c(C#N)cnc3cc(OCCCN4CCN(C)CC4)c(OC)cc23)c(Cl)cc1Cl [Bosutinib] + Cc1cc(Nc2cc(N3CCN(C)CC3)nc(Sc3ccc(NC(=O)C4CC4)cc3)n2)n[nH]1 [Tozasertib] (partner 0.1 µM)
Method in brief: as §1

[5] = compound: COc1cc(Nc2c(C#N)cnc3cc(OCCCN4CCN(C)CC4)c(OC)cc23)c(Cl)cc1Cl [Bosutinib] + CCNC(=O)c1noc(-c2cc(C(C)C)c(O)cc2O)c1-c1ccc(CN2CCOCC2)cc1 [Luminespib] (partner 0.01 µM)
Method in brief: as §1

[6] = compound: COc1cc(Nc2c(C#N)cnc3cc(OCCCN4CCN(C)CC4)c(OC)cc23)c(Cl)cc1Cl [Bosutinib] + COc1cccc2cc(-c3nc([C@H]4CC[C@H](C(=O)O)CC4)n4ncnc(N)c34)[nH]c12 [OSI-027] (partner 0.5 µM)
Method in brief: as §1

[7] = compound: COc1cc(Nc2c(C#N)cnc3cc(OCCCN4CCN(C)CC4)c(OC)cc23)c(Cl)cc1Cl [Bosutinib] + Cc1nc(Nc2ncc(C(=O)Nc3c(C)cccc3Cl)s2)cc(N2CCN(CCO)CC2)n1 [Dasatinib] (partner 0.075 µM)
Method in brief: as §1

[8] = compound: COc1cc(Nc2c(C#N)cnc3cc(OCCCN4CCN(C)CC4)c(OC)cc23)c(Cl)cc1Cl [Bosutinib] + O=C(c1cc(Cc2n[nH]c(=O)c3ccccc23)ccc1F)N1CCN(C(=O)C2CC2)CC1 [Olaparib] (partner 8 µM)
Method in brief: as §1

[9] = compound: COc1cc(Nc2c(C#N)cnc3cc(OCCCN4CCN(C)CC4)c(OC)cc23)c(Cl)cc1Cl [Bosutinib] + Nc1nc2[nH]cc(CCc3ccc(C(=O)N[C@@H](CCC(=O)O)C(=O)O)cc3)c2c(=O)[nH]1 [Pemetrexed] (partner 0.2 µM)
Method in brief: as §1

[10] = compound: COc1cc(Nc2c(C#N)cnc3cc(OCCCN4CCN(C)CC4)c(OC)cc23)c(Cl)cc1Cl [Bosutinib] + CC(=O)c1c(C)c2cnc(Nc3ccc(N4CCNCC4)cn3)nc2n(C2CCCC2)c1=O [Palbociclib] (partner 0.5 µM)
Method in brief: as §1

[11] = compound: COc1cc(Nc2c(C#N)cnc3cc(OCCCN4CCN(C)CC4)c(OC)cc23)c(Cl)cc1Cl [Bosutinib] + CC(=O)Nc1cccc(-n2c(=O)n(C3CC3)c(=O)c3c(Nc4ccc(I)cc4F)n(C)c(=O)c(C)c32)c1 [Trametinib] (partner 0.02 µM)
Method in brief: as §1

[12] = compound: COc1cc(Nc2c(C#N)cnc3cc(OCCCN4CCN(C)CC4)c(OC)cc23)c(Cl)cc1Cl [Bosutinib] + Nc1ncn([C@H]2C[C@H](O)[C@@H](CO)O2)c(=O)n1 [Decitabine] (partner 2 µM)
Method in brief: as §1

[13] = compound: COc1cc(Nc2c(C#N)cnc3cc(OCCCN4CCN(C)CC4)c(OC)cc23)c(Cl)cc1Cl [Bosutinib] + NC(=O)Nc1cc(-c2cccc(F)c2)sc1C(=O)N[C@H]1CCCNC1 [AZD7762] (partner 0.2 µM)
Method in brief: as §1

[14] = compound: COc1cc(Nc2c(C#N)cnc3cc(OCCCN4CCN(C)CC4)c(OC)cc23)c(Cl)cc1Cl [Bosutinib] + O=C(CCCCCCC(=O)Nc1ccccc1)NO [Vorinostat] (partner 1 µM)
Method in brief: as §1

NCI-H1623
relative viability ([1]; 0.01 µM): 0.891
relative viability ([1]; 0.03162 µM): 0.95
relative viability ([1]; 0.1 µM): 0.979
relative viability ([1]; 1 µM): 0.724
relative viability ([2]; first compound 0.01 µM): 0.534
relative viability ([2]; first compound 0.03162 µM): 0.591
relative viability ([2]; first compound 0.1 µM): 0.51
relative viability ([2]; first compound 1 µM): 0.51
relative viability ([3]; first compound 0.01 µM): 0.854
relative viability ([3]; first compound 0.03162 µM): 0.846
relative viability ([3]; first compound 0.1 µM): 0.866
relative viability ([3]; first compound 1 µM): 0.64
relative viability ([4]; first compound 0.01 µM): 0.474
relative viability ([4]; first compound 0.03162 µM): 0.425
relative viability ([4]; first compound 0.1 µM): 0.428
relative viability ([4]; first compound 1 µM): 0.399
relative viability ([5]; first compound 0.01 µM): 0.645
relative viability ([5]; first compound 0.03162 µM): 0.565
relative viability ([5]; first compound 0.1 µM): 0.517
relative viability ([5]; first compound 1 µM): 0.497
relative viability ([6]; first compound 0.01 µM): 0.432
relative viability ([6]; first compound 0.03162 µM): 0.418
relative viability ([6]; first compound 0.1 µM): 0.45
relative viability ([6]; first compound 1 µM): 0.416
relative viability ([7]; first compound 0.01 µM): 0.38
relative viability ([7]; first compound 0.03162 µM): 0.555
relative viability ([7]; first compound 0.1 µM): 0.542
relative viability ([7]; first compound 1 µM): 0.57

NCI-H1648
relative viability ([1]; 0.01 µM): 1.15
relative viability ([1]; 0.03162 µM): 0.851
relative viability ([1]; 0.1 µM): 0.997
relative viability ([1]; 1 µM): 0.931
relative viability ([8]; first compound 0.01 µM): 0.953
relative viability ([8]; first compound 0.03162 µM): 0.703
relative viability ([8]; first compound 0.1 µM): 1.01
relative viability ([8]; first compound 1 µM): 0.77
relative viability ([9]; first compound 0.01 µM): 0.728
relative viability ([9]; first compound 0.03162 µM): 0.824
relative viability ([9]; first compound 0.1 µM): 0.744
relative viability ([9]; first compound 1 µM): 0.813
relative viability ([4]; first compound 0.01 µM): 0.594
relative viability ([4]; first compound 0.03162 µM): 0.447
relative viability ([4]; first compound 0.1 µM): 0.396
relative viability ([4]; first compound 1 µM): 0.462
relative viability ([10]; first compound 0.01 µM): 0.297
relative viability ([10]; first compound 0.03162 µM): 0.278
relative viability ([10]; first compound 0.1 µM): 0.26
relative viability ([10]; first compound 1 µM): 0.341
relative viability ([11]; first compound 0.01 µM): 0.548
relative viability ([11]; first compound 0.03162 µM): 0.501
relative viability ([11]; first compound 0.1 µM): 0.505
relative viability ([11]; first compound 1 µM): 0.421
relative viability ([12]; first compound 0.01 µM): 0.471
relative viability ([12]; first compound 0.03162 µM): 0.622
relative viability ([12]; first compound 0.1 µM): 0.662
relative viability ([12]; first compound 1 µM): 0.675
relative viability ([6]; first compound 0.01 µM): 0.286
relative viability ([6]; first compound 0.03162 µM): 0.251
relative viability ([6]; first compound 0.1 µM): 0.261
relative viability ([6]; first compound 1 µM): 0.245
relative viability ([13]; first compound 0.01 µM): 0.659
relative viability ([13]; first compound 0.03162 µM): 0.639
relative viability ([13]; first compound 0.1 µM): 0.838
relative viability ([13]; first compound 1 µM): 0.61
relative viability ([14]; first compound 0.01 µM): 0.389
relative viability ([14]; first compound 0.03162 µM): 0.471
relative viability ([14]; first compound 0.1 µM): 0.541
relative viability ([14]; first compound 1 µM): 0.511
